Results: patent publication US7335481B2, “Methods of identifying compounds that affect a fatty acid cell-surface receptor” (priority 2002, dated 2008)
Like-named read-outs stand apart in the source and are kept apart here.

Experiments:
[1] = molecular target: T1, FFAR (R10; GPR40) (Homo sapiens, UniProt O14842); assay: HFF11 reporter cell assay, HFF11.pR10 cells expressing FFAR; type: cell-based; design: response of the R10 reporter cell line in the initial screening: dose or concentration left out as unconfirmed; conditions: for activation of FFAR: result in words; for response of the R10 reporter cell line in the initial screening: FIG. 1a/1b
T1 construct: expressed in transfected cells; host or cells: HFF11 reporter cells (HeLa-based), line HFF11.pR10
T1 sequence (O14842 whole entry): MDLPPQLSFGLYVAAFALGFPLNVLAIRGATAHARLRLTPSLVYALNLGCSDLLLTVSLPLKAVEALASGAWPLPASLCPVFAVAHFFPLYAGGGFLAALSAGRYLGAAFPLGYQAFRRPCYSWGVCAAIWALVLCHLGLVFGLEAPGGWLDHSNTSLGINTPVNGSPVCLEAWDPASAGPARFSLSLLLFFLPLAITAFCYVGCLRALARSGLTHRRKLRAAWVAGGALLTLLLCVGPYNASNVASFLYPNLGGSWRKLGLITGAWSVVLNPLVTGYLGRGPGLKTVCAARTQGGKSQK
Method: Construction of the HFF11 reporter cell lines (successor of the previously described HeLa based cell line, HF1) expressing the orphan GPCRs studied was performed as earlier reported. (Co-pending U.S. application Ser. No. 09/946,334 filed Sep. 21, 2001; Kotarsky et al. 2001.) They contain the reporter plasmid, pcFUS3, where the original promoter region has been extended by 6 NFkB and 6 STAT elements. (Co-pending U.S. application Ser. No. 09/946,334 filed Sep. 21, 2001; Kotarsky et al., unpublished.) On day 1, HFF11 reporter cells, with or without the test […] receptor, were seeded into 96-well plates at 20,000 cells per well in 100 μl growth medium. On day 3, the medium was removed and replaced by 90 μl serum-free medium. Substances (e.g., compounds) and controls were added in the appropriate concentrations 24 h later. Stimulations were performed at 37 degrees C. for 7 h. Cell lysates were assayed in a BMG Lumistar Galaxy luminometer as previously described. (Kotarsky et al., 2001.) Statistical analysis of the drug concentration-response data was carried out with the GraphPad PRISM software package. In the initial screening, reporter cell lines, with or without recombinant test receptors, were challenged with FFAs, such as AA and LA, at […]. Ten cell lines expressing ten “orphan receptors” (one receptor per cell line) were screened. The expressed receptors were labeled R1-R10.

[2] = molecular target: T1, FFAR (R10; GPR40); assay: Aequorin reporter assay (calcium release) in CHO and HeLa cells transiently transfected with R10; type: cell-based; conditions: CHO and HeLa cells co-transfected with R10 and aequorin, versus sham-transfected cells, FIG. 2
Method: Cells were seeded the day before transfection in a 6-well plate (400,000 cells/well). Then, 0.8 μg of PCDM.AEQ reporter plasmid (Button et al., 1993.) and 1 μg pIRESpuro.R10 receptor plasmid, or pcEGFP for controls, were mixed with 100 μl OptiMEM containing 5 μl per transfection of PLUS reagent. After 15 min., 100 μl OptiMEM and 9 μl (HeLa cells) or 6 μl (CHO cells) of lipofectamine were added and incubated for another 15 min. Then, 800 μl OptiMEM were added, and the cells were washed and incubated with the transfection solution for 5 h. Two days after transfection, cells were loaded with 10 μM coelenterazine and injected into a 96-well plate containing test or control (vehicle) substances. Light emission was recorded for 1 min in a BMG Lumistar Galaxy luminometer and normalized to total emission using […] 100 mM CaCl2 for each well.
Activation of receptor R10 by LA was confirmed by stimulation in two different cell lines, CHO and HeLa, transiently co-transfected with expression vectors containing the R10 ORF (i.e., the gene encoding FFAR) and the calcium-activated photoprotein, aequorin. […] (FIG. 2.)

[3] = test system: orphan receptors R1-R9; assay: HFF11 reporter cell initial screening on the other orphan receptors; type: cell-based, human; design: dose or concentration left out as unconfirmed; conditions: data not shown
Description: Taken together, this prompted an investigation of these FFAs using a screening approach aimed at identifying potential surface receptors. We used a highly sensitive reporter system (Kotarsky et al., 2001) expressing each of ten different putative human heptahelix receptors, for which the endogenous activating ligands were still unknown (i.e., “orphan receptors”), was used. The receptor sequences were selected from GenBank, based on a reasonably high sequence homology to the receptors for leukotriene B4 (an AA derivative), previously cloned. (Owman et al., 1996; Tryselius et al., 2000.)
Construction of the HFF11 reporter cell lines (successor of the previously described HeLa based cell line, HF1) expressing the orphan GPCRs studied was performed as earlier reported. (Co-pending U.S. application Ser. No. 09/946,334 filed Sep. 21, 2001; Kotarsky et al. 2001.) They contain the reporter plasmid, pcFUS3, where the original promoter region has been extended by 6 NFkB and 6 STAT elements. (Co-pending U.S. application Ser. No. 09/946,334 filed Sep. 21, 2001; Kotarsky et al., unpublished.) On day 1, HFF11 reporter cells, with or without the test heptahelix receptor, were seeded into 96-well plates at 20,000 cells per well in 100 μl growth medium. On day 3, the medium was removed and replaced by 90 μl serum-free medium. […]

[4] = FFAR response to free fatty acids, HFF11.pR10 reporter cell line, read-out: Mean EC50
[5] = HFF11 reporter cells expressing FFAR

**Q.** How did the EC50 [1, 4] turn out when `CCCCC/C=C\C=C\C(O)CCCCCCCC(=O)O` (racemic) [9-HODE, (±)-9-hydroxy, trans-10, cis-12-octadecanoic acid] was run?
**A.** 3.4 µM

**Q.** What about the “activation of FFAR” value [1, 5] of the same compound?
**A.** activated FFAR

**Q.** Which “activation of FFAR” value [1, 5] does the source give for `CC1(COc2ccc(CC3SC(=O)NC3=O)cc2)CCCCC1` (racemic) [Ciglitazone, (±)-5-[4-(1-methylcyclohexylmethoxy)-benzyl]thiazolidine-2,4-dione] here?
**A.** strongly activated FFAR

**Q.** For `CCCCC/C=C\C=C\CCCCCCCCC(=O)O` [CLA, trans-10, cis-12-octadecanoic acid], which EC50 [1, 4] is on record?
**A.** 77.3 µM

**Q.** What about the “activation of FFAR” value [1, 5] of the same compound?
**A.** activated FFAR

**Q.** For `CCCCCCCCCC(=O)O` [Capric acid, Decanoic acid], which EC50 ([1]; concentration response curves, HFF11 reporter cells expressing FFAR, FIG. 3, read-out: EC50) is on record?
**A.** 12.6 µM

**Q.** With `CCOC(=O)C(C)(C)Oc1ccc(Cl)cc1` [Clofibrate] as the compound, how does the “activation of FFAR” value [1, 5] read?
**A.** inactive

**Q.** For `CCCCC/C=C\C/C=C\CCCCCCCCCC(=O)O` [EDA, cis-11, cis-14- -eicosadienoic acid], which EC50 [1, 4] is on record?
**A.** 20 µM

**Q.** With `CCCCCCCC/C=C/CCCCCCCC(=O)O` [Elaidic acid, trans-9-octadecanoic acid] as the compound, how does the EC50 [1, 4] read?
**A.** 120 µM

**Q.** How did the “activation of FFAR” value [1, 5] turn out when `COc1ccc(Cl)cc1C(=O)NCCc1ccc(S(=O)(=O)NC(=O)NC2CCCCC2)cc1` [Glibenclamid, Glibenclamide] was run?
**A.** inactive

**Q.** How did the EC50 [1, 4] turn out when `CCCCCCC(O)CCCCCCCCCCC(=O)O` (stereo not drawn) [Hydroxystearic acid, 12-hydroxyoctadecanoic acid] was run?
**A.** 8 µM

**Q.** For `CCCCCCCCCCCC(=O)O` [Lauric acid, Dodecanoic acid], which EC50 [1, 4] is on record?
**A.** 22.5 µM

**Q.** For `CCCCC/C=C\C/C=C\CCCCCCCC(=O)O` [Linoleic acid, cis-9, cis-12,-octadecanoic acid], which EC50 [1, 4] is on record?
**A.** 38.4 µM

**Q.** What about the “response of the R10 reporter cell line in the initial screening” value [1] of the same compound?
**A.** strong and reproducible response

**Q.** And the “calcium-mediated luminescence upon stimulation” value [2]?
**A.** calcium-mediated luminescence flash

**Q.** With `CC(C)(CCCCCCCCCCC(C)(C)CC(=O)O)CC(=O)O` [MEDICA 16, 3,3,14,14-tetramethyl-hexadecanedioic acid] as the compound, how does the “activation of FFAR” value [1, 5] read?
**A.** strongly activated FFAR

**Q.** For `CCCC/C=C/CCCCCCCC(=O)O` [Myristelaidic acid, trans-9-tetradecenoic acid], which EC50 [1, 4] is on record?
**A.** 25 µM

**Q.** Which EC50 [1, 4] does the source give for `CCCCCCCC/C=C\CCCCCCCC(=O)O` [Oleic acid, cis-9-octadecanoic acid] here?
**A.** 123 µM

**Q.** `CCCCCCCCCCCCCCCC(=O)O` [Palmitic acid, Hexadecanoic acid] was tested. Which EC50 [1, 4] did it give?
**A.** 143 µM

**Q.** With `CCCCCC/C=C\CCCCCCCC(=O)O` [Palmitoleic acid, hexadecenoic acid] as the compound, how does the EC50 [1, 4] read?
**A.** 100 µM

**Q.** With `CCCCCCC(O)C/C=C/CCCCCCCC(=O)O` (stereo not drawn) [Ricinelaidic acid, 12-hydroxy, trans 9-octadecanoic acid] as the compound, how does the EC50 [1, 4] read?
**A.** 20 µM

**Q.** Which EC50 [1, 4] does the source give for `CCCCCCC(O)C/C=C\CCCCCCCC(=O)O` (stereo not drawn) [Ricinoleic acid, 12-hydroxy, cis 9-octadecenoic acid] here?
**A.** 8 µM

**Q.** For `CCC=CCC=CCC=CCC=CCCCCC(=O)O` [Stearidonic acid, cis-6, cis-9, cis-12-15-octadecanoic acid], which EC50 [1, 4] is on record?
**A.** 8.9 µM

**Q.** `CCCCC/C=C\C/C=C\C/C=C\C/C=C\CCCC(=O)O` [arachidonic acid] was tested. Which “response of the R10 reporter cell line in the initial screening” value [1] did it give?
**A.** no effect

**Q.** What about the “effect on test receptors R1-R9 in the initial screening” value [3] of the same compound?
**A.** no effect

**Q.** How did the “activation of FFAR” value [1, 5] turn out when `CCCCCCCCCCCCCCCCCC(=O)O` [stearic acid] was run?
**A.** able to activate the receptor

**Q.** With `CCCCC/C=C\C/C=C\C/C=C\CCCCC(=O)O` [γ-Linoleic acid, cis-6, cis-9, cis-12-octadecanoic acid] as the compound, how does the EC50 [1, 4] read?
**A.** 28.5 µM
